Experimental data as given in ChEMBL document CHEMBL1201862, “PubChem BioAssay data set” (2004).
The source made the active and inactive calls. Rule as the data show it, for most assays here: actives have a measured EC50 and inactives only a lower limit.

Columns and labels:
[1] = molecular target: T1, Serine/threonine-protein phosphatase (Candida dubliniensis (strain CD36 / CBS 7987 / NCPF 3949 / NRRLY-17841) (Yeast), UniProt B9W6M3); experiment: calcineurin pathway inhibitors in yeast reporter, dose response, S. cerevisiae, CDRE-lacZ, luminescence, secondary (AID 2388); type: functional, cell-based;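 also: yeast reporter cells carrying a calcineurin-responsive lacZ construct stimulated with calcium chloride; luminescent beta-galactosidase reporter signal in whole cells rather than isolated phosphatase activity; potency for inhibition where a drop in reporter signal means calcineurin blockade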
T1 sequence (B9W6M3 whole entry): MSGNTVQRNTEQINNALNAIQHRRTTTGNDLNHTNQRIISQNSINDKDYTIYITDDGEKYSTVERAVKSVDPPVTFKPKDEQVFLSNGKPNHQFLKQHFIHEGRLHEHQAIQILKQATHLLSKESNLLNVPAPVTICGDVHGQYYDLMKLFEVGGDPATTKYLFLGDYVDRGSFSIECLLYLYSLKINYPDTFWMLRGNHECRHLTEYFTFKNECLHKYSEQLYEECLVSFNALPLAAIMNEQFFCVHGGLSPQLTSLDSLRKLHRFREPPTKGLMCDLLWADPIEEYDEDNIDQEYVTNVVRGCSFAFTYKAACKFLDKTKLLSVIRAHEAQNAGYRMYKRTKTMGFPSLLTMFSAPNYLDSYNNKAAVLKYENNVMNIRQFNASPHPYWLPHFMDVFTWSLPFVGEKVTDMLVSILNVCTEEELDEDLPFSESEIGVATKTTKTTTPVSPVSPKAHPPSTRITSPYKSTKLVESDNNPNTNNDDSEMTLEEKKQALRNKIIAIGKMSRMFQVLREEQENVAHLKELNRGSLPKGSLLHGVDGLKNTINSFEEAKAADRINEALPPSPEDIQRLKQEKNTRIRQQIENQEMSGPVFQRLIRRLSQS

[2] = miR-122 activators in hepatoma reporter cells, dose response, cell-based, Huh7 psiCHECK-miR122, Renilla luciferase, cherry-picked (AID 651956); type: functional;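 also: huh7 hepatoma cells stably carrying a psiCHECK-2 miR-122 sensor plasmid; renilla luciferase signal reporting endogenous miR-122 activity after 48 h compound exposure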
[3] = molecular target: T2, RNA-binding protein pos-1 (Caenorhabditis elegans, UniProt G5EF15); experiment: inhibitors of POS-1/mex-3 RNA binding, dose response, biochemical, fluorescence polarization (AID 1964);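 also: purified POS-1 fused to maltose binding protein made in E. coli; potency of compounds blocking POS-1 binding to fluorescent RNA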
T2 sequence (G5EF15 whole entry): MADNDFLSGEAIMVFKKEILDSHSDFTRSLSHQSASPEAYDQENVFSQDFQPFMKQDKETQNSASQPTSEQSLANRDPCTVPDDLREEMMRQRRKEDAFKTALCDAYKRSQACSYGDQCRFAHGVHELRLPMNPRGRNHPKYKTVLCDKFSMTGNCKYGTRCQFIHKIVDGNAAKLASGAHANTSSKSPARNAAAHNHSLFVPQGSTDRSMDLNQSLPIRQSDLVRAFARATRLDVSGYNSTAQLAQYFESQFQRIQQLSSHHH

[4] = molecular target: T3, Zinc finger protein mex-5 (Caenorhabditis elegans, UniProt Q9XUB2); experiment: MEX-5/TCR-2 RNA interaction inhibitors, dose response, biochemical, C. elegans, fluorescence polarization (AID 1960)
T3 sequence (Q9XUB2 whole entry): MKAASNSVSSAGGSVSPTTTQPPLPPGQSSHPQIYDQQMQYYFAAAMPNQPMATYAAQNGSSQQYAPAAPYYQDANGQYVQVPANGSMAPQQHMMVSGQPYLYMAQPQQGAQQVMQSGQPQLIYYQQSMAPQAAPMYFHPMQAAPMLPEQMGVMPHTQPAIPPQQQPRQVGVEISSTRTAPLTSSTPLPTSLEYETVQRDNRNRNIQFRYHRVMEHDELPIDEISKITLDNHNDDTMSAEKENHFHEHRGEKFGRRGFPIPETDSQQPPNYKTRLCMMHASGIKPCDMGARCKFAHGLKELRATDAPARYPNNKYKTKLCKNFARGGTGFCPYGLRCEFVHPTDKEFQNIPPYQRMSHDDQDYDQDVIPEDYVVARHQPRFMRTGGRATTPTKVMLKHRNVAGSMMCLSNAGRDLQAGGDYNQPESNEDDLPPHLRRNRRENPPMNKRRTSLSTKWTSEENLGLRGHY

[5] = molecular target: T4, Histone-lysine N-methyltransferase NSD2 (Homo sapiens, UniProt O96028); type: biochemical
T4 sequence (O96028 whole entry): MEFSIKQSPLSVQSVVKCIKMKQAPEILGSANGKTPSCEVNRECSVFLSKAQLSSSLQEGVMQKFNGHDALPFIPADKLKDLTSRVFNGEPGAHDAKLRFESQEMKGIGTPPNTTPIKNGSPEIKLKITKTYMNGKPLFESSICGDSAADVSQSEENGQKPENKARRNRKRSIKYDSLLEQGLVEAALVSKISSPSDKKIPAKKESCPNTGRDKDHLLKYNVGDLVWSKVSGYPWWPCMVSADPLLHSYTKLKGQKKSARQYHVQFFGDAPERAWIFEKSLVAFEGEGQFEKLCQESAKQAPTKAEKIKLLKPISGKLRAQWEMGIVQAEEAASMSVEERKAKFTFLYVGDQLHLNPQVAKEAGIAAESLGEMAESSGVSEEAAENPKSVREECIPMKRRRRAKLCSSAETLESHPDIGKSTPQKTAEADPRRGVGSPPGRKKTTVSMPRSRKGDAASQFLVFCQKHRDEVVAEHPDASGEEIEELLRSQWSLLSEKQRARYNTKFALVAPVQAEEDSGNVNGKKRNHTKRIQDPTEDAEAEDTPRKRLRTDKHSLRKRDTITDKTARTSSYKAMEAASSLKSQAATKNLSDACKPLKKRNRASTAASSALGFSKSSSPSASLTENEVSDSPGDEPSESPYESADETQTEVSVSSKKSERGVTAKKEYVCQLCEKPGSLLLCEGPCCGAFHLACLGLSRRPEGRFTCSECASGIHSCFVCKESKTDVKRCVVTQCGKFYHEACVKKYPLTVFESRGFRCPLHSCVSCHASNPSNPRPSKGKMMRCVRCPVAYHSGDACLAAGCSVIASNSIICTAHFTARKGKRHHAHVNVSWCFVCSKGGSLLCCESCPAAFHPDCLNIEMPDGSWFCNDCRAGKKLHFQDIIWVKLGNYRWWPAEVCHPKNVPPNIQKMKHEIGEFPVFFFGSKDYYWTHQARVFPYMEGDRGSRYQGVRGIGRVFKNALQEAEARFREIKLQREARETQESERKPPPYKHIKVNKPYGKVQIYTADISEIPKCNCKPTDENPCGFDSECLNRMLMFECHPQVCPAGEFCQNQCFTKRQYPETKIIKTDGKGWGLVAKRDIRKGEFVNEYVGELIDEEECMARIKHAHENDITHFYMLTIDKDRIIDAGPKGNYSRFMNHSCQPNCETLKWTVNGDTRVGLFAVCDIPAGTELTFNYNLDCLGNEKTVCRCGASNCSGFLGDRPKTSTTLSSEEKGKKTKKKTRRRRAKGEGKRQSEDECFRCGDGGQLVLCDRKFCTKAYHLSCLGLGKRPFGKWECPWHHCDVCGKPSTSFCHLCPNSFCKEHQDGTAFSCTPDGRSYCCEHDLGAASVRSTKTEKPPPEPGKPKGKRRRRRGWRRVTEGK

CCCC(=O)NC(c1cccs1)c1cc(Cl)c2cccnc2c1O (stereo not given)
EC50 [1]: > 180 µM (inactive)

Cc1ccc(C(=O)OCn2ncc(Cl)c(Cl)c2=O)cc1
AC50 [2]: 9.52 µM (active)

O=C(O)CC(C(=O)O)N1C(=O)/C(=C/C=C/c2ccco2)SC1=S (stereo not given)
EC50 [3]: 10.4 µM (active) | EC50 [4]: 23.3 µM (active) | AC50 [5]: 4.16 µM (active)
